Results as given in ChEMBL document CHEMBL4800729 (2021).

Legend:
[1] = target: Wee1-like protein kinase 2 (Homo sapiens) (UniProt P0C1S8); test: Wee1B(h) Millipore kinase panel; conditions: Compound concentration 1.0 uM
[2] = target: Beta-1 adrenergic receptor (Homo sapiens) (UniProt P08588); conditions: Compound concentration 10.0 uM
[3] = target: CDK7/Cyclin H/MNAT1 (Homo sapiens) (UniProt P51946+P50613+P51948); test: CDK7/cyclinH/MAT1(h) Millipore kinase panel; format: protein-complex assay; conditions: Compound concentration 1.0 uM
[4] = target: Non-receptor tyrosine-protein kinase TYK2 (Homo sapiens) (UniProt P29597); test: TYK2(h) Millipore kinase panel; conditions: Compound concentration 1.0 uM
[5] = target: PI3-kinase p110-delta/p85-alpha (Homo sapiens) (UniProt P27986+O00329); test: PI3 Kinase (p110d/p85a)(h) Millipore kinase panel; format: protein-complex assay; conditions: Compound concentration 1.0 uM
[6] = target: Insulin receptor (Homo sapiens) (UniProt P06213); test: IR(h) Millipore kinase panel; conditions: Compound concentration 1.0 uM
[7] = target: Dual specificity tyrosine-phosphorylation-regulated kinase 1B (Homo sapiens) (UniProt Q9Y463); test: DYRK1B(h) Millipore kinase panel; conditions: Compound concentration 1.0 uM
[8] = target: Delta-type opioid receptor (Homo sapiens) (UniProt P41143); conditions: Compound concentration 10.0 uM
[9] = target: Proto-oncogene tyrosine-protein kinase Src (Homo sapiens) (UniProt P12931); test: cSRC(h) Millipore kinase panel; conditions: Compound concentration 1.0 uM
[10] = target: Mitogen-activated protein kinase kinase kinase 5 (Homo sapiens) (UniProt Q99683); test: ASK1(h) Millipore kinase panel; conditions: Compound concentration 1.0 uM
[11] = target: 3-phosphoinositide-dependent protein kinase 1 (Homo sapiens) (UniProt O15530); test: PDK1(h) Millipore kinase panel; conditions: Compound concentration 1.0 uM
[12] = target: Serine/threonine-protein kinase WNK2 (Homo sapiens) (UniProt Q9Y3S1); test: WNK2(h) Millipore kinase panel; conditions: Compound concentration 1.0 uM
[13] = target: Motilin receptor (Homo sapiens) (UniProt O43193); conditions: Compound concentration 10.0 uM
[14] = target: Sigma intracellular receptor 2 (Homo sapiens) (UniProt Q5BJF2); conditions: Compound concentration 10.0 uM
[15] = target: Insulin receptor-related protein (Homo sapiens) (UniProt P14616); test: IRR(h) Millipore kinase panel; conditions: Compound concentration 1.0 uM
[16] = target: Homeodomain-interacting protein kinase 1 (Homo sapiens) (UniProt Q86Z02); test: HIPK1(h) Millipore kinase panel; conditions: Compound concentration 1.0 uM
[17] = target: T1, Alpha-2C adrenergic receptor (Homo sapiens) (UniProt P18825); conditions: Compound concentration 10.0 uM
T1 sequence (whole entry): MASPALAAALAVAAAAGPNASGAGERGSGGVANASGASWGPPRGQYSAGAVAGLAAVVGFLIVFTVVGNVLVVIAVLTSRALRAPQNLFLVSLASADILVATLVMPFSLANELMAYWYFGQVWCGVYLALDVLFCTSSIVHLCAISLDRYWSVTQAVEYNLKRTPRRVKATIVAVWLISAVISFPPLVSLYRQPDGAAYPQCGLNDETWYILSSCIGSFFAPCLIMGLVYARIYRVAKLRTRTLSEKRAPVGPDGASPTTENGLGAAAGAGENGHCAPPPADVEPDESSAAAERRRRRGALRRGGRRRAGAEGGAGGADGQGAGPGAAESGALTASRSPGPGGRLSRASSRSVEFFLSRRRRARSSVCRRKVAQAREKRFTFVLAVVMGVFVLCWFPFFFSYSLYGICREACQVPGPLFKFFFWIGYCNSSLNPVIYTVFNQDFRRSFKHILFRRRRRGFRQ

[18] = target: G protein-coupled receptor kinase 6 (Homo sapiens) (UniProt P43250); test: GRK6(h) Millipore kinase panel; conditions: Compound concentration 1.0 uM
[19] = target: 5-hydroxytryptamine receptor 3A (Homo sapiens) (UniProt P46098); conditions: Compound concentration 10.0 uM
[20] = target: Protein kinase C alpha type (Homo sapiens) (UniProt P17252); test: PKCalpha(h) Millipore kinase panel; conditions: Compound concentration 1.0 uM
[21] = target: Cyclin-dependent kinase-like 2 (Homo sapiens) (UniProt Q92772); test: CDKL2(h) Millipore kinase panel; conditions: Compound concentration 1.0 uM
[22] = target: Serine/threonine-protein kinase PAK 3 (Homo sapiens) (UniProt O75914); test: PAK3(h) Millipore kinase panel; conditions: Compound concentration 1.0 uM
[23] = target: Gamma-aminobutyric acid type B receptor subunit 1 (Homo sapiens) (UniProt Q9UBS5); conditions: Rattus norvegicus; Compound concentration 10.0 uM
[24] = target: Aurora kinase C (Homo sapiens) (UniProt Q9UQB9); test: Aurora_C(h) Millipore kinase panel; conditions: Compound concentration 1.0 uM
[25] = target: Epithelial discoidin domain-containing receptor 1 (Homo sapiens) (UniProt Q08345); test: DDR1(h) Millipore kinase panel; conditions: Compound concentration 1.0 uM
[26] = target: G protein-coupled receptor kinase 3 (Homo sapiens) (UniProt P35626); test: GRK3(h) Millipore kinase panel; conditions: Compound concentration 1.0 uM
[27] = target: Serine/threonine-protein kinase PAK 6 (Homo sapiens) (UniProt Q9NQU5); test: PAK6(h) Millipore kinase panel; conditions: Compound concentration 1.0 uM
[28] = target: D(2) dopamine receptor (Homo sapiens) (UniProt P14416); conditions: Compound concentration 10.0 uM
[29] = target: [Pyruvate dehydrogenase (acetyl-transferring)] kinase isozyme 4, mitochondrial (Homo sapiens) (UniProt Q16654); test: PDHK4(h) Millipore kinase panel; conditions: Compound concentration 1.0 uM
[30] = target: Tyrosine-protein kinase HCK (Homo sapiens) (UniProt P08631); test: Hck(h) activated Millipore kinase panel; conditions: Compound concentration 1.0 uM
[31] = target: Cannabinoid receptor 2 (Homo sapiens) (UniProt P34972); conditions: Compound concentration 10.0 uM
[32] = target: Fibroblast growth factor receptor 3 (Homo sapiens) (UniProt P22607); test: FGFR3(h) Millipore kinase panel; conditions: Compound concentration 1.0 uM
[33] = target: Cyclin-dependent kinase 14/Cyclin-Y (Homo sapiens) (UniProt O94921+Q8ND76); test: CDK14/cyclinY(h) Millipore kinase panel; format: protein-complex assay; conditions: Compound concentration 1.0 uM
[34] = target: Mitogen-activated protein kinase kinase kinase 11 (Homo sapiens) (UniProt Q16584); test: MLK3(h) Millipore kinase panel; conditions: Compound concentration 1.0 uM
[35] = target: AP2-associated protein kinase 1 (Homo sapiens) (UniProt Q2M2I8); test: AAK1(h) Millipore kinase panel; conditions: Compound concentration 1.0 uM
[36] = target: 5-hydroxytryptamine receptor 7 (Homo sapiens, UniProt P34969); test: GPCRScan assay: inhibition of 5-HT7A; set-up: radioligand conc. used [nm] 5.0 – 6.0, parental cells Stable HEK
[37] = target: D(1A) dopamine receptor (Homo sapiens, UniProt P21728); conditions: Compound concentration 10.0 uM

Chain of 5-hydroxytryptamine receptor 7 (P34969 whole entry): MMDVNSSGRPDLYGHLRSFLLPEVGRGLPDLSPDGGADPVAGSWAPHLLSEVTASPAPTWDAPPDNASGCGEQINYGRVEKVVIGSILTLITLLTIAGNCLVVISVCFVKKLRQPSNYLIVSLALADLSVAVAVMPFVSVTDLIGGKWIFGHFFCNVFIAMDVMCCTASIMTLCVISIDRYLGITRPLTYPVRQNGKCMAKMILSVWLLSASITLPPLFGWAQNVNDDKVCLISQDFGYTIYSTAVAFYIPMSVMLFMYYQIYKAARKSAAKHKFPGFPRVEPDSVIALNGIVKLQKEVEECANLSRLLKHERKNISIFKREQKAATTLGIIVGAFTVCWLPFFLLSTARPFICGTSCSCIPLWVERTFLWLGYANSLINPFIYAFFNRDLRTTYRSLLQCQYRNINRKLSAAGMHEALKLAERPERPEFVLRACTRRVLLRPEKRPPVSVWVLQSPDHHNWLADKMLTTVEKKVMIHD
Chain of Dual specificity tyrosine-phosphorylation-regulated kinase 1B (Homo sapiens) (Q9Y463 whole entry, looked up): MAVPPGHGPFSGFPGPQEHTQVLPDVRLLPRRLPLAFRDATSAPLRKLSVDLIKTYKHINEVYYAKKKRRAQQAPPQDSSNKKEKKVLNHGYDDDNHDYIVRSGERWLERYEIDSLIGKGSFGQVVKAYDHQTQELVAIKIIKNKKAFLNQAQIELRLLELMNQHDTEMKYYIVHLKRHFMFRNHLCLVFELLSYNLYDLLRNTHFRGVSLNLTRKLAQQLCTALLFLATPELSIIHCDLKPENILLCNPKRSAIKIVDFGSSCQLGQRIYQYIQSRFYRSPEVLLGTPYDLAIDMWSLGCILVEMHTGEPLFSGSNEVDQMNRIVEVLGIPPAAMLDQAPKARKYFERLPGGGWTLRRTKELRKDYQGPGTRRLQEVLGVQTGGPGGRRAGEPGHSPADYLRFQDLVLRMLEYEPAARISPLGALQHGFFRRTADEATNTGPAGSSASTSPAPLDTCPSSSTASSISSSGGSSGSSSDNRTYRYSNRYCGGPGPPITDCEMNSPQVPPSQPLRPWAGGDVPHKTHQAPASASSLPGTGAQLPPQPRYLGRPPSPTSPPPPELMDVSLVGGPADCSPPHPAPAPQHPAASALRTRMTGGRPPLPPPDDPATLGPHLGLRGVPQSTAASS
Chain of Serine/threonine-protein kinase WNK2 (Homo sapiens) (Q9Y3S1 whole entry): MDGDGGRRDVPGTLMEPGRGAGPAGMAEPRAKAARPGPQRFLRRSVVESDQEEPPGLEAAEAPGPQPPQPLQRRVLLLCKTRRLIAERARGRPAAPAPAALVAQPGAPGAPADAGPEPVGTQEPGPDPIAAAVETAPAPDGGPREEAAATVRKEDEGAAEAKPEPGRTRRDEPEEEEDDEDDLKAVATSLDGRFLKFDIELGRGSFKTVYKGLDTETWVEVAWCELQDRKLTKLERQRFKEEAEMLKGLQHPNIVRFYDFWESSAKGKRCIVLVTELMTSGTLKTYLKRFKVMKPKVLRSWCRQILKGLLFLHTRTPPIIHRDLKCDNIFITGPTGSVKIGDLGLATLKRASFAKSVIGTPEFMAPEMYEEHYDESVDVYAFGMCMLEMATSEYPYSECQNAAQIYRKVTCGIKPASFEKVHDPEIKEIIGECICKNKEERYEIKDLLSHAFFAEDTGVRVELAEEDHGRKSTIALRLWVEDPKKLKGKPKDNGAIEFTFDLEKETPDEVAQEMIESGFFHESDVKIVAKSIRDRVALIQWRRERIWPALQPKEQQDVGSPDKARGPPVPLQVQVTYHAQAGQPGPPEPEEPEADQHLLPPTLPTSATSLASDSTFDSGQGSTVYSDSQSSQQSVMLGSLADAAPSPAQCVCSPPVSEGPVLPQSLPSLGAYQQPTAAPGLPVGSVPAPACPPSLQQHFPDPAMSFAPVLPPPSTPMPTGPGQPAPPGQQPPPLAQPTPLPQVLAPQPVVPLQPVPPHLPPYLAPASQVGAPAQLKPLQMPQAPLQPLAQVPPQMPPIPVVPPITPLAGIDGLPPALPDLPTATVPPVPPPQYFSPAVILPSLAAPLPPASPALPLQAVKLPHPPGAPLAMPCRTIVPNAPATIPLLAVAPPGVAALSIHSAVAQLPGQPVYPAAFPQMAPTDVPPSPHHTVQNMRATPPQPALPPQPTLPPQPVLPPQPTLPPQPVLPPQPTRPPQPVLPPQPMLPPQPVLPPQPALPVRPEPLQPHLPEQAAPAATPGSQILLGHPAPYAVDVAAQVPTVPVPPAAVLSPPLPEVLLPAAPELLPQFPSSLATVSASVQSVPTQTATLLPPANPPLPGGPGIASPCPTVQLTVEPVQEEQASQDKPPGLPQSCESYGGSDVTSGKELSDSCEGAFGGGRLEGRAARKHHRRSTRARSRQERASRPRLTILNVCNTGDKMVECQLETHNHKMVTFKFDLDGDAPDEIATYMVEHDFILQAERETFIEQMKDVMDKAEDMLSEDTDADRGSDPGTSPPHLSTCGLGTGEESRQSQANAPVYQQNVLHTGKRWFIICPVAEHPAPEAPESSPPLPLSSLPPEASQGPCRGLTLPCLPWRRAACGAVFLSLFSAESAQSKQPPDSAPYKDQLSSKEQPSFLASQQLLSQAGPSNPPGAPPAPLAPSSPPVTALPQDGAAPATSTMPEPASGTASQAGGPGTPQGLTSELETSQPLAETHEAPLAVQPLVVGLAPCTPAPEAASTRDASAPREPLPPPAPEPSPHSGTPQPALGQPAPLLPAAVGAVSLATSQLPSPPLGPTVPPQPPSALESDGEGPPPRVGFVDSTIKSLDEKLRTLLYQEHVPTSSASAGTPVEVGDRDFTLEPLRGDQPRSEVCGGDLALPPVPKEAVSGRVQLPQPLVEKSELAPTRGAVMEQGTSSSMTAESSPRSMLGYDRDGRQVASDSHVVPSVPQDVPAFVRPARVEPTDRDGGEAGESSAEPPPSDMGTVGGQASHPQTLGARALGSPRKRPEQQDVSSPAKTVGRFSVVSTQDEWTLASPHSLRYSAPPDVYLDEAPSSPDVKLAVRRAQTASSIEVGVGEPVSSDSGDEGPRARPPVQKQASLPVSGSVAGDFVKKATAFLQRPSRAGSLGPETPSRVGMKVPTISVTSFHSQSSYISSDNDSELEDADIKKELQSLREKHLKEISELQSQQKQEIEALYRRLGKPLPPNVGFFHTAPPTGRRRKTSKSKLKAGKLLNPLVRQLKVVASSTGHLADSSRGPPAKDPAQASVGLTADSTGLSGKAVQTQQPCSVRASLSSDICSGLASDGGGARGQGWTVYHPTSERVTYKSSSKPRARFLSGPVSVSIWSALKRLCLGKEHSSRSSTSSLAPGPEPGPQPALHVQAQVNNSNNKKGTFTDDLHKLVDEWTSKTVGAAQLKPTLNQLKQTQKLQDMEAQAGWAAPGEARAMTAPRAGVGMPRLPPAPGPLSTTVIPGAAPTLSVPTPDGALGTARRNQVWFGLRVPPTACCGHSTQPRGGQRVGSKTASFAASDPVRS
Chain of Serine/threonine-protein kinase PAK 3 (Homo sapiens) (O75914 whole entry, looked up): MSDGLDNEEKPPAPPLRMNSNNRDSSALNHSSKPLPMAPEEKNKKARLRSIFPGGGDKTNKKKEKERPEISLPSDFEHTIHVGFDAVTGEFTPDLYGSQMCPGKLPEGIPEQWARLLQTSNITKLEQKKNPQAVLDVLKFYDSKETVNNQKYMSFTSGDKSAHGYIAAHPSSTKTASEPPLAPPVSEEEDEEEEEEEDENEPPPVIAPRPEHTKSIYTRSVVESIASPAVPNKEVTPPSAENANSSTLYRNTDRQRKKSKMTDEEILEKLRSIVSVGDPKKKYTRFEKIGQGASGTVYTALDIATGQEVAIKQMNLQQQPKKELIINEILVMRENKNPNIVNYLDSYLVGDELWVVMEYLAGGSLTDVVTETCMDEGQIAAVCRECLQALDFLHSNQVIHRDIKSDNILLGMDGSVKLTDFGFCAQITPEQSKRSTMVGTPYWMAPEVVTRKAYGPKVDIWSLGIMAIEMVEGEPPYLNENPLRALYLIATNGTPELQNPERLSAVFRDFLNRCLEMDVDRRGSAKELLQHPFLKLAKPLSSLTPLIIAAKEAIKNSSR
Chain of Proto-oncogene tyrosine-protein kinase Src (Homo sapiens) (P12931 2-536 limits assumed): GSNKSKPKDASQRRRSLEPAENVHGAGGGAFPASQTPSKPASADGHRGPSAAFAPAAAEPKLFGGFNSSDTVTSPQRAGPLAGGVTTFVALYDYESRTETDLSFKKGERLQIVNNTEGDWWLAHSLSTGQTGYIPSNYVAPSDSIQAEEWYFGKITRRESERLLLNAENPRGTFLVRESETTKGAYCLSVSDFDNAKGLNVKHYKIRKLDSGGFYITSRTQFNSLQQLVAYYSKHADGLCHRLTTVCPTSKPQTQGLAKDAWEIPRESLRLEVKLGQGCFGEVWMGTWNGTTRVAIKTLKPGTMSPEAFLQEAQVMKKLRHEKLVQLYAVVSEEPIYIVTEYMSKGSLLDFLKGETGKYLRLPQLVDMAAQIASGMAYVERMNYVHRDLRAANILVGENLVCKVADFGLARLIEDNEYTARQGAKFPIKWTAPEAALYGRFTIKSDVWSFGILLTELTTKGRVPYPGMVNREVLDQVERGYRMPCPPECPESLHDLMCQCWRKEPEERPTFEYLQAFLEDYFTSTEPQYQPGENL
Chain of Tyrosine-protein kinase HCK (Homo sapiens) (P08631 2-526 limits assumed): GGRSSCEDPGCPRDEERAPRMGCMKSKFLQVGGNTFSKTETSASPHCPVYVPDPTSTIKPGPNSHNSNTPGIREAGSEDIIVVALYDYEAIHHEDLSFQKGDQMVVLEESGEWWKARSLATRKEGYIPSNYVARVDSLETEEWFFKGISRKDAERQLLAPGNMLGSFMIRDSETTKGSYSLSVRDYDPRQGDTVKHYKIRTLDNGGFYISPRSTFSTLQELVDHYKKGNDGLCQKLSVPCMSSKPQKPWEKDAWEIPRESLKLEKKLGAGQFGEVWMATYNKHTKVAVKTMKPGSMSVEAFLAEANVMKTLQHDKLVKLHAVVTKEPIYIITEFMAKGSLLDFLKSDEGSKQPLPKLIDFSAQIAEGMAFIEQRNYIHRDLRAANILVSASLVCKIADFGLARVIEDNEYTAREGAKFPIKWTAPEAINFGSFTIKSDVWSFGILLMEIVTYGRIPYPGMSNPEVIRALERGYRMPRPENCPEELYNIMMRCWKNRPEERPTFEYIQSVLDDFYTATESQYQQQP

## CC[C@@H](Nc1c(C#N)c(-c2ccc(-c3cccc(C)c3F)cc2)nc2cnccc12)C(=O)O [BAY-091]
[1]
  inhibition: 9.64%
[2]
  inhibition: 4.09%
[3]
  inhibition: 0.3%
[4]
  inhibition: 1.22%
[5]
  inhibition: 30.9%
[6]
  inhibition: -2.92%
[7]
  inhibition: 12.1%
[8]
  inhibition: 12.9%
[9]
  inhibition: 7.51%
[10]
  inhibition: -9.98%
[11]
  inhibition: -8.72%
[12]
  inhibition: 3.31%
[13]
  inhibition: -2%
[14]
  inhibition: 24.6%
[15]
  inhibition: 6.25%
[16]
  inhibition: 3.6%
[17]
  inhibition: 4%
[18]
  inhibition: 0.16%
[19]
  inhibition: 7.39%
[20]
  inhibition: 16.2%
[21]
  inhibition: 19.4%
[22]
  inhibition: 4.13%
[23]
  inhibition: 5%
[24]
  inhibition: 4.64%
[25]
  inhibition: 11.7%
[26]
  inhibition: 8.23%
[27]
  inhibition: -5.79%
[28]
  inhibition: 8%
[29]
  inhibition: 9.88%
[30]
  inhibition: -6.21%
[31]
  inhibition: 1%
[32]
  inhibition: -1%
[33]
  inhibition: 18.1%
[34]
  inhibition: 21.1%
[35]
  inhibition: 7.44%
[36]
  Ki: > 10 µM
  pKi: < 5
[37]
  inhibition: -3.98%
